In article PMC3480357, “Fragment-Hopping-Based Discovery of a Novel Chemical Series of Proto-Oncogene PIM-1 Kinase Inhibitors” (PLoS ONE, 2012):

What was measured:
MET = MET (Homo sapiens, UniProt P08581); design: method as in PMID 21051136; details: 10 µM; average of two data points; cited from earlier work
AKT1 = AKT1 (Homo sapiens, UniProt P31749); design: method as in PMID 21051136; details: 10 µM; average of two data points; cited from earlier work
PAK1 = PAK1 (Homo sapiens, UniProt Q13153); design: method as in PMID 21051136; details: 10 µM; average of two data points; cited from earlier work
PAK1, sequence (Q13153 whole entry): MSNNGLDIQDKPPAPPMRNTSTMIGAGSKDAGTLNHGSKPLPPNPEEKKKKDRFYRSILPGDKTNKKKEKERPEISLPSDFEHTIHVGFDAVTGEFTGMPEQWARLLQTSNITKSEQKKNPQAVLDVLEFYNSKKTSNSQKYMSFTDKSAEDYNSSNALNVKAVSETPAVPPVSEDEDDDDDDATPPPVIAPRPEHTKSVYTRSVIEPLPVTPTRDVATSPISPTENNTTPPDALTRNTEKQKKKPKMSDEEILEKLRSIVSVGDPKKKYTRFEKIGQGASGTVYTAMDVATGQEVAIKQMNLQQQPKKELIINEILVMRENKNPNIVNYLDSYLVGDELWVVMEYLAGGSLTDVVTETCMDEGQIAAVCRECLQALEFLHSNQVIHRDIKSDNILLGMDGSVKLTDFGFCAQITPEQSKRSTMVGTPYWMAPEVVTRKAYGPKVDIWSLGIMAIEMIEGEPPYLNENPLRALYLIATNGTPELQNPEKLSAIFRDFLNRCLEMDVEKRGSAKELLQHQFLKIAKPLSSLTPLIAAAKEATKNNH

JNK1 = JNK1 (Homo sapiens, UniProt P45983); design: method as in PMID 21051136; details: 10 µM; average of two data points; cited from earlier work
JNK1, sequence (P45983 whole entry, species assumed): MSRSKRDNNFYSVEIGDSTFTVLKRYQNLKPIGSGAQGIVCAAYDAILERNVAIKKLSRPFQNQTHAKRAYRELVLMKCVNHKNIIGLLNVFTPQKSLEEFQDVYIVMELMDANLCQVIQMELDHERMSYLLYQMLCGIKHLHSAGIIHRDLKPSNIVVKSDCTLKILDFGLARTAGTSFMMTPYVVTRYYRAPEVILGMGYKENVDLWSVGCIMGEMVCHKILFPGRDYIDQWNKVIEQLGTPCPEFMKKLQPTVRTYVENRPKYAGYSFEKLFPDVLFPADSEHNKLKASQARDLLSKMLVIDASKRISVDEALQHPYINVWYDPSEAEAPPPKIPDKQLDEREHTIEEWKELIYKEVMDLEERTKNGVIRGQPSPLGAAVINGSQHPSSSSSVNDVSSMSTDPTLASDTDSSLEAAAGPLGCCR

ARK5 = target: T1, ARK5 (Homo sapiens, UniProt O60285); design: method as in PMID 21051136; details: 10 µM; average of two data points; cited from earlier work
T1 sequence (O60285 1-661): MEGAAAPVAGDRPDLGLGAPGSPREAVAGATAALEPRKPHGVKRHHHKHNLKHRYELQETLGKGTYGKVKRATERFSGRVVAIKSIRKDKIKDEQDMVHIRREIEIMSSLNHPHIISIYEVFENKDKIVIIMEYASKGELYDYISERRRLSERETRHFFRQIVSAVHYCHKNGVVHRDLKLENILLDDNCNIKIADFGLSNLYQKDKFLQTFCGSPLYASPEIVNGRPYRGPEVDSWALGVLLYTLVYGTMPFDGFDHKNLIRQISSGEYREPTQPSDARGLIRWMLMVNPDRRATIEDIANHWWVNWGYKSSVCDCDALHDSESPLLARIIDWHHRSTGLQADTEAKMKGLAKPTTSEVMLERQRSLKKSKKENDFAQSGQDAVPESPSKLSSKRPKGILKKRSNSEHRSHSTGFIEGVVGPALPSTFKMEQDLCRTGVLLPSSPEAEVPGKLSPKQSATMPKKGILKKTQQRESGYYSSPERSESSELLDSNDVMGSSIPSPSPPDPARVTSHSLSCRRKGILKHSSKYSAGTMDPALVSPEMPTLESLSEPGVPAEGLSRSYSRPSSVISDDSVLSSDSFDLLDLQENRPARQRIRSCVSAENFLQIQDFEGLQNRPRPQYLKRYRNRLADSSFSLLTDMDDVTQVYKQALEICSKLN

PIM-2 = PIM-2 (Homo sapiens, UniProt Q9P1W9); design: method as in PMID 21051136; details: cited from earlier work
PIM-2, sequence (Q9P1W9 whole entry): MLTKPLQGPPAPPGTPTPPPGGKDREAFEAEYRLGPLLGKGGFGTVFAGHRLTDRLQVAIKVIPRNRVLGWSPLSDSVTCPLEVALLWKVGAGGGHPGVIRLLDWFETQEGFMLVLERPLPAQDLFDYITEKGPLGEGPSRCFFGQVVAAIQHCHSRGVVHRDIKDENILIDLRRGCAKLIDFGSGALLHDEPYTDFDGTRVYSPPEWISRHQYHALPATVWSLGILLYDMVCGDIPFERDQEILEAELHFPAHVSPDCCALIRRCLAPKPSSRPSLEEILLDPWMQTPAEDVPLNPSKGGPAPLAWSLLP

CK1-α1 = CK1-α1 (Homo sapiens, UniProt P48729); design: method as in PMID 21051136; details: 10 µM; average of two data points; cited from earlier work
CK1-α1, sequence (P48729 whole entry): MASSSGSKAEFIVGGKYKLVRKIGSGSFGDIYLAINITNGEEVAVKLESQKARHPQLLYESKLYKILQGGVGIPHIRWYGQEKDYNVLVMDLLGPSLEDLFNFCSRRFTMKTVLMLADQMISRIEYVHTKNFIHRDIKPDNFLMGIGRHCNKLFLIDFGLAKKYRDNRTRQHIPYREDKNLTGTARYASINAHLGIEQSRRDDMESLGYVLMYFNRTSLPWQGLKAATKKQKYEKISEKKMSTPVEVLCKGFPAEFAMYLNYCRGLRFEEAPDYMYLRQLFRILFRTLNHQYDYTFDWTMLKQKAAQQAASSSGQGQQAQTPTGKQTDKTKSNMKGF

PIM-3 = PIM-3 (Homo sapiens, UniProt Q86V86); design: method as in PMID 21051136; details: cited from earlier work
MST1 = target: T2, MST1 (Homo sapiens, UniProt Q13043); design: method as in PMID 21051136; details: 10 µM; average of two data points; cited from earlier work
T2 sequence (Q13043 1-487): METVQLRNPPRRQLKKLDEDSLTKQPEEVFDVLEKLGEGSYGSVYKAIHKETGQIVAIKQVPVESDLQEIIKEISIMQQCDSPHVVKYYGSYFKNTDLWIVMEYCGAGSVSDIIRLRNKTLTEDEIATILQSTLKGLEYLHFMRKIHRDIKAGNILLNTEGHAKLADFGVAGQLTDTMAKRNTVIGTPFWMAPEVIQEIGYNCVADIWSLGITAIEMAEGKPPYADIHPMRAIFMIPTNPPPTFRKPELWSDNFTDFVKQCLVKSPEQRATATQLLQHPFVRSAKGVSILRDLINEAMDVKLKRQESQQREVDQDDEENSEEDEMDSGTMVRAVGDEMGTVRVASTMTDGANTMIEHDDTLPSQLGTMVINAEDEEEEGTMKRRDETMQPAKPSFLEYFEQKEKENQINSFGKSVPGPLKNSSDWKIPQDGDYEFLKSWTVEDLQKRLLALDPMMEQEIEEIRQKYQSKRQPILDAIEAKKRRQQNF

EGF-R = EGF-R (Homo sapiens, UniProt P00533); design: method as in PMID 21051136; details: 10 µM; average of two data points; cited from earlier work
EGF-R, sequence (P00533 25-1210, species assumed): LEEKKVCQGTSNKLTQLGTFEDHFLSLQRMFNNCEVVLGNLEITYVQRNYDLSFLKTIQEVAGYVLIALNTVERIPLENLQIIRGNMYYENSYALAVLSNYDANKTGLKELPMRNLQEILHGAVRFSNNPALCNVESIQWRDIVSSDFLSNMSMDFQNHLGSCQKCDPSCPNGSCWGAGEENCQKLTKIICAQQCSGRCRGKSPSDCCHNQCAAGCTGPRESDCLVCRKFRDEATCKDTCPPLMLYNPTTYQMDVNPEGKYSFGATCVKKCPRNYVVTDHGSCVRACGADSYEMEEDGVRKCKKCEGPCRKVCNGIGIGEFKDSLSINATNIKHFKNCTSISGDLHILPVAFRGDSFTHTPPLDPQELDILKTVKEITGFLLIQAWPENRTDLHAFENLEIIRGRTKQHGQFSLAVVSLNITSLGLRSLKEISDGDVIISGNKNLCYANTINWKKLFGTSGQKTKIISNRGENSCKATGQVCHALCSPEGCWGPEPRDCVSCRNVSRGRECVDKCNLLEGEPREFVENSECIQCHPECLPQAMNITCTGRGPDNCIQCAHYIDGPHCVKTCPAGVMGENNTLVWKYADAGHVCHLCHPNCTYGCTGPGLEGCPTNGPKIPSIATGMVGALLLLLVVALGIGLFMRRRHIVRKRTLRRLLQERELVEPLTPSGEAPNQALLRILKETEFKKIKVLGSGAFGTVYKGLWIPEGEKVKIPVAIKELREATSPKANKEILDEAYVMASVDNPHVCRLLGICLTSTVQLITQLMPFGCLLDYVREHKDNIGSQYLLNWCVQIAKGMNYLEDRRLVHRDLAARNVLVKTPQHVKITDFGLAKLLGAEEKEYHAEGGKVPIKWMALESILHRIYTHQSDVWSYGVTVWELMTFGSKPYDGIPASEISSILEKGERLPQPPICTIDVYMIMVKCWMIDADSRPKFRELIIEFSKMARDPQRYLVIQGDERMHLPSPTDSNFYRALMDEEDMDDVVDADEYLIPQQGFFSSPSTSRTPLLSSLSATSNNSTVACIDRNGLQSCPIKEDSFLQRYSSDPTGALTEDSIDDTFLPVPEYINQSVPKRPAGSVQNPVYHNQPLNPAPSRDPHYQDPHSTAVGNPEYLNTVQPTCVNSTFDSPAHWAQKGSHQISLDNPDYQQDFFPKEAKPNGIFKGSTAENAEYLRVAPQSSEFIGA

FLT3 = target: T3, FLT3 (Homo sapiens, UniProt P36888); design: method as in PMID 21051136; details: 10 µM; cited from earlier work
T3 construct: purchased Invitrogen PV3182
T3 sequence (P36888 564-993 limits assumed): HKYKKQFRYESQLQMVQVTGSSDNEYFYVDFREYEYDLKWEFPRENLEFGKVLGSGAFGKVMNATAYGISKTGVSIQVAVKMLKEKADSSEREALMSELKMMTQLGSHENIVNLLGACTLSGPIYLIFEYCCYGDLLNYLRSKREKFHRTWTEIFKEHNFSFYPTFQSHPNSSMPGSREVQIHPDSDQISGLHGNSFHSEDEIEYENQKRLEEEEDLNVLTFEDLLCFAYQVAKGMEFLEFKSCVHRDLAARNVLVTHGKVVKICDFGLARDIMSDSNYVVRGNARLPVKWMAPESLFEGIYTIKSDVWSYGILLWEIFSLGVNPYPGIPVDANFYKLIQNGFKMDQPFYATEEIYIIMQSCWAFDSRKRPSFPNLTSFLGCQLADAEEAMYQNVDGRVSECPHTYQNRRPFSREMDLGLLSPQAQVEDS

SGK1 = target: T4, SGK1 (Homo sapiens, UniProt O00141); design: method as in PMID 21051136; details: 10 µM; average of two data points; cited from earlier work
T4 sequence (O00141 1-431): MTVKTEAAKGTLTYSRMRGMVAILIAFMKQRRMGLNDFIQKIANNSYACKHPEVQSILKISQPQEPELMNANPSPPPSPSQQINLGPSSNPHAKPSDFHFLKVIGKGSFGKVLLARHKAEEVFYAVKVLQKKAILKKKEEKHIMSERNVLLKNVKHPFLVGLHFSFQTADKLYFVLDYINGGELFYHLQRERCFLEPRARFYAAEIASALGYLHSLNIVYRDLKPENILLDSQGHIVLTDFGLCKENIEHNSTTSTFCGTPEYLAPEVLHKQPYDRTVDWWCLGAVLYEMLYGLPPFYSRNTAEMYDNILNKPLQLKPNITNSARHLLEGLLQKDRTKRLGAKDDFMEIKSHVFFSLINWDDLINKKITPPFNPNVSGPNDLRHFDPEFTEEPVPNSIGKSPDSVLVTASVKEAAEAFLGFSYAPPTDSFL

[1] = design: method as in earlier work; details: SuperGen press release; cited from earlier work
hERG = hERG (Homo sapiens, UniProt Q12809); test: hERG radioligand binding assay using [3H]-astemizole; details: duplicate
hERG, sequence (Q12809 whole entry): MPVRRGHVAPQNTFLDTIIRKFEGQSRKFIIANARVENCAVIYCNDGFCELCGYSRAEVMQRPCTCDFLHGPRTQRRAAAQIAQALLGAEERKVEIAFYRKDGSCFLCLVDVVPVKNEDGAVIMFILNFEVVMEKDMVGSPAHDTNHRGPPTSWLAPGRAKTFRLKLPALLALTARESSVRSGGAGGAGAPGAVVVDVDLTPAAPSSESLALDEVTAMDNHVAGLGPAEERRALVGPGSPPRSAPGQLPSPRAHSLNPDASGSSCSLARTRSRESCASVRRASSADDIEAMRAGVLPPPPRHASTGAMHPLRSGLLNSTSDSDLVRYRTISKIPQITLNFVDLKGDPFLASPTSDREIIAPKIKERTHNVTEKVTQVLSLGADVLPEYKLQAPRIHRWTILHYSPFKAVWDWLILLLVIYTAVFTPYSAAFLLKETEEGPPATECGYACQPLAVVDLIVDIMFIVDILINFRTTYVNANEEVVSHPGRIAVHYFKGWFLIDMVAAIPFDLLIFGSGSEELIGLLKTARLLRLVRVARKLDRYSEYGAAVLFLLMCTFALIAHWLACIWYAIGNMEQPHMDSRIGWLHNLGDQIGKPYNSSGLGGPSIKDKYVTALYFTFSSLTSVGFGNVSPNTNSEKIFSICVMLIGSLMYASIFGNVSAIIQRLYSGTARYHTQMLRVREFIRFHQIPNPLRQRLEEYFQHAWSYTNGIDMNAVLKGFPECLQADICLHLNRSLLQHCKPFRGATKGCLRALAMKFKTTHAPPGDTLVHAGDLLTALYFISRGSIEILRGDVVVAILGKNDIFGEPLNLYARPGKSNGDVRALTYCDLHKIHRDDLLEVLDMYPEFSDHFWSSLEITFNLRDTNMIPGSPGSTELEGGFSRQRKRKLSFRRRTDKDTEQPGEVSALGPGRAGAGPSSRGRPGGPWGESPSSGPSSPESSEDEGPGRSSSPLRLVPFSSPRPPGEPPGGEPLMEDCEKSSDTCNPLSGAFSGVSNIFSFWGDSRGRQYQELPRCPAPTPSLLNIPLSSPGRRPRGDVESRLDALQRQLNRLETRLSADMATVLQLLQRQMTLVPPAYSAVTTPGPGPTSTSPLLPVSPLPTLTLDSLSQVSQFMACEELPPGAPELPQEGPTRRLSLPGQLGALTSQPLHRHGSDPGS

AKT1, sequence (P31749 whole entry, species assumed): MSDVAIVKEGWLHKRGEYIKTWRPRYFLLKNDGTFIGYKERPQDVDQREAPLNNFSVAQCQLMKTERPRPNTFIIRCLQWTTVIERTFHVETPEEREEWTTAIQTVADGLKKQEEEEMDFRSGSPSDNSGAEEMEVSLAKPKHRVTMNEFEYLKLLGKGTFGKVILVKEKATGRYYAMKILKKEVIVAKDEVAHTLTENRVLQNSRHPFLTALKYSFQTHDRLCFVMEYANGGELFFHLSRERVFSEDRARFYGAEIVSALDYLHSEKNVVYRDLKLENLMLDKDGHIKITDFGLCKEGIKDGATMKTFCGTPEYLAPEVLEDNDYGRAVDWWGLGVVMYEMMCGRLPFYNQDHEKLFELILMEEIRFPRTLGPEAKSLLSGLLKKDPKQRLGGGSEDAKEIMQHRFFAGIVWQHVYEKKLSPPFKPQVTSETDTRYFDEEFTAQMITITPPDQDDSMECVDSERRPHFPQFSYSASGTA

**Q.** Which results are given for `Oc1ccc(-c2cnc3ccc(NCc4ccc(F)cc4)nn23)cc1` [Compound 1]?
**A.** MET percentage of inhibition (MET): 32%; AKT1 percentage of inhibition (AKT1): 0%; PAK1 percentage of inhibition (PAK1): 7%; JNK1 percentage of inhibition (JNK1): 62%; ARK5 percentage of inhibition (ARK5): 71%; IC50 (PIM-2): 420 nM; CK1-α1 percentage of inhibition (CK1-α1): 33%; IC50 (PIM-3): 79 nM; MST1 percentage of inhibition (MST1): 82%; EGF-R percentage of inhibition (EGF-R): 33%; FLT3 percentage of inhibition (FLT3): more than 90%; SGK1 percentage of inhibition (SGK1): 73%

**Q.** With `CN1CCC(CNc2ccc3ncc(-c4cccc(OC(F)(F)F)c4)n3n2)CC1` [Compound 3, reference compound] as the molecule, how does the “cardiac and pharmacokinetic data evaluation in Phase I trial” value [1] read?
**A.** failed to demonstrate a safe therapeutic window

**Q.** With `CN1CCC(CNc2ccc3nnn(-c4cccc(OC(F)(F)F)c4)c3n2)CC1` [Compound 8, (1-Methyl-piperidin-4-ylmethyl)-[3-(3-trifluoromethoxy-phenyl)-3H-[1], [2], [3]triazolo[4,5-b]pyridin-5-yl]-amine] as the molecule, how does the IC50 (hERG) read?
**A.** 5400 nM
